Legend:
[1] = test system: rat brain ischemia-reperfusion (I/R); settings: acute rat model, inhaled; Ohsawa 2007; cited from earlier work
[2] = test system: mice with intratracheal administration of LPS; assay: LPS-induced lung injury in mice (intratracheal LPS); assay type: in vivo; settings: for lung injury after intratracheal LPS: 2% H2 and/or 20 ppm NO for 3 hours starting at 5 minutes or 3 hours after LPS administration; for pulmonary inflammation and cell apoptosis: H2 and/or NO treatment
Description: Applicants have discovered that NO's effect as an antioxidant may be enhanced by eliminating highly reactive by-products of NO inhalation such as peroxynitrite, by adding H2 to inhaled NO gas.

chrondrocytes = settings: Yokota 2015; cited from earlier work
neonatal piglets = settings: short-term exposure, Ekekezie 2000; cited from earlier work
HIF = settings: cited from earlier work
rats exposed to high O2 = settings: cited from earlier work

Structure (SMILES)	lung injury after intratracheal LPS [2]	pulmonary inflammation and cell apoptosis [2]	lung collagen accumulation (neonatal piglets)	also measured
[HH] [H2, hydrogen]	significantly improved	down-regulated	–	brain injury associated with focal ischemia-reperfusion [1]: markedly suppressed; effect on cells under oxidant injury (chrondrocytes): cytoprotective effects
O=O [O2, oxygen]	–	–	increases lung collagen accumulation	–
[N]=O [NO, nitric oxide]	significantly improved	down-regulated	increases lung collagen accumulation	effect on HIF at high doses (HIF; high doses and after 30 minutes): inhibitory; effect on HIF at low dose (HIF; low dose, for 30 minutes, during hypoxia): stimulates; survival in high O2 exposure (rats exposed to high O2; rats, inhaled NO): increase survival
COC(=O)[C@@H](N)CCCN=C(N)N[N+](=O)[O-] [Nω-nitro-1-arginine methyl ester]	–	–	–	survival on exposure to >95% O2 with endogenous NO production blocked (rats exposed to high O2; neonatal rats, compared with control rats): significantly fewer survived

— patent US20200368271A1, “METHOD AND APPARATUS FOR ADMINISTERING GASES INCLUDING NITRIC OXIDE” (priority 2015, published 2020)
